Experimental data reported in patent US8008292B2, “Condensed benzamide compounds and inhibitors of vanilloid receptor subtype 1 (VR1) activity” (Japan Tobacco Inc., priority 2004, dated 2011).

Target: T1, human VR1 (Homo sapiens, UniProt Q8NER1)
T1 construct: expressed in transfected cells
Assay: Inhibition of Ca2+ entry in cells caused by proton, in rat glioma (C6BU1) cells stably expressing human VR1 (Fura 2 fluorescence)
Format: cell-based
Details: inhibition of proton-induced Ca2+ entry
Procedure: The assay for evaluation of VR1 inhibition by the inventive compounds will be described below. The assay was intended to evaluate in vitro inhibition of Ca^2+ entry in cells caused by proton, one of the VR1 agonists.
Rat glioma (C6BU1) cells stably expressing human VR1 were suspended in 20 mM MES buffer (at pH 6.8, contg. 20 mM 2-morpholinoethanesulfonate (referred to as MES hereinafter), 115 mM NaCl, 5 mM KCl, 1 mM MgCl2 and 14 mM D-glucose) to make a cell density of 1×10^6 cells/mL. A fluorescent dye, Fura 2-AMsolution (DojindoCorporate, Cat. No. 343-05401) was added to the suspension to make a 5 μM concentration thereof. Further, Pluronic F-127 (Wako Pure Chemical Industries, Ltd., Cat. No. P6866) was added to make a 0.1% content thereof. Then, the suspension was incubated at 37° C. for 30 min. The cells were harvested and washed three times with 20 mM MES buffer. The cells were suspended again to make a cell density of 5×10^5 cells/mL. A 500-μL portion of the suspension was taken with a cuvette (MC MEDICAL, INC., Cat. No. SSR3121), to which 10 μL of 20 mM MES buffer containing 250 mM CaCl2 was added to incorporate Ca^2+ into the cells. At the same time, 5 μL of a test compound solution (in a range of 100 μM to 10 nM in DMSO) was also added to provide a final concentration thereof in a range of 1 μM to 0.1 nM. Alternatively, 5 μL of DMSO was added as control to provide a final concentration of 1% DMSO. The suspension was set in an intracellular ionometer (CAF-110; JASCO) 10 min after those additions. The cells were stimulated with protons by addition of 60 μL of 20 mM MES buffer at pH 1.1 to the suspension to set its pH at 5.5. The activity of the test compound was determined as a difference between the minimum of fluorescence intensity before agonist stimulation and its maximum after the stimulation. The value of IC50 was derived from percentage of inhibition by the test compound compared with the control.
In the tables, the symbol “++” indicates an IC50 value less than 100 nM and the symbol “+” indicates an IC50 value of 100 nM to 1,000 nM inclusive.

T1 sequence (Q8NER1 whole entry): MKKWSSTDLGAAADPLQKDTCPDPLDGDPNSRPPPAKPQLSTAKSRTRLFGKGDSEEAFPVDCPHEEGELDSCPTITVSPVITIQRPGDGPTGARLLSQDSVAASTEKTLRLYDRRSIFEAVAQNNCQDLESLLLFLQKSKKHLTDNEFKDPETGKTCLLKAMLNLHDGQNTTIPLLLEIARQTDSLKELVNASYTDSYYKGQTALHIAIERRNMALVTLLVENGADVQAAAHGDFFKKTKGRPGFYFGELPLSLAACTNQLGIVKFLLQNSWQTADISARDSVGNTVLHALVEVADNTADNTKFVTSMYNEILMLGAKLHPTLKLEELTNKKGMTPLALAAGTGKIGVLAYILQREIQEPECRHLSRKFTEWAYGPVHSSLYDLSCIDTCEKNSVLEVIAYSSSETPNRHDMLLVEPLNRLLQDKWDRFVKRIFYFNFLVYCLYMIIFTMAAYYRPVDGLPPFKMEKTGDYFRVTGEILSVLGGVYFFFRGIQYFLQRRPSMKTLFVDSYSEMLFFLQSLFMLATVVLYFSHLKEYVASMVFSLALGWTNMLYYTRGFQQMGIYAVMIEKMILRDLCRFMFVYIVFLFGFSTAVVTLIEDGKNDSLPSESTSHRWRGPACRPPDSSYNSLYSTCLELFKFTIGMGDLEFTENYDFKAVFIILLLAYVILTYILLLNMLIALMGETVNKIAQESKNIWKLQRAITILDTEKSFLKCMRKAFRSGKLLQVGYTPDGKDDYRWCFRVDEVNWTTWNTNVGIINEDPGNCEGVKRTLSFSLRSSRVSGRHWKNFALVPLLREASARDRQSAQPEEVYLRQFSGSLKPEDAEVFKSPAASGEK

SMILES | IC50 [nM]
CC(O)c1cnc(N2CCOc3c(C(=O)Nc4ccc(C(F)(F)F)cc4)cccc32)c(Cl)c1 (single isomer, unassigned; (+)) [Example 2-12, (+)-N-(4-trifluoromethylphenyl)-4-{3-chloro-5-(1-hydroxyethyl)pyridin-2-yl}-3,4-dihydro-2H-benzo[1,4]oxazine-8-carboxamide] | < 100
CC(O)c1cnc(N2CCOc3c(C(=O)Nc4ccc(OC(F)(F)F)cc4)cccc32)c(Cl)c1 (single isomer, unassigned; (+)) [Example 2-14, (+)-N-(4-trifluoromethoxyphenyl)-4-{3-chloro-5-(1-hydroxyethyl)pyridin-2-yl}-3,4-dihydro-2H-benzo[1,4]oxazine-8-carboxamide] | < 100
CC(O)c1cnc(N2CCOc3c(C(=O)Nc4ccc(C(F)(F)F)cc4)cccc32)c(Cl)c1 (single isomer, unassigned; (-)) [Example 2-13, (−)-N-(4-trifluoromethylphenyl)-4-{3-chloro-5-(1-hydroxyethyl)pyridin-2-yl}-3,4-dihydro-2H-benzo[1,4]oxazine-8-carboxamide] | < 100
CC(O)c1cnc(N2CCOc3c(C(=O)Nc4ccc(OC(F)(F)F)cc4)cccc32)c(Cl)c1 (single isomer, unassigned; (-)) [Example 2-15, (−)-N-(4-trifluoromethoxyphenyl)-4-{3-chloro-5-(1-hydroxyethyl)pyridin-2-yl}-3,4-dihydro-2H-benzo[1,4]oxazine-8-carboxamide] | < 100
CC(C)(C)c1ccc(NC(=O)c2cccc3c2OCCN3c2ncccc2Cl)cc1 [Example 1-001, N-(4-tert-butylphenyl)-4-(3-chloropyridin-2-yl)-3,4-dihydro-2H-benzo[1,4]oxazine-8-carboxamide] | < 100
CC1COc2c(C(=O)Nc3ccc(C(C)(C)C)cc3)cccc2N1c1ncccc1Cl (stereo not shown) [Example 1-003, N-(4-tert-butylphenyl)-4-(3-chloropyridin-2-yl)-3-methyl-3,4-dihydro-2H-benzo[1,4]oxazine-8-carboxamide] | < 100
CN1CCN(c2ncccc2Cl)c2cccc(C(=O)Nc3ccc(C(C)(C)C)cc3)c21 [Example 1-004, N-(4-tert-butylphenyl)-1-(3-chloropyridin-2-yl)-4-methyl-1,2,3,4-tetrahydroquinoxaline-5-carboxamide] | < 100
CC(C)(C)c1ccc(NC(=O)c2cccc3c2OCCCN3c2ncccc2Cl)cc1 [Example 1-005, N-(4-tert-butylphenyl)-9-(3-chloropyridin-2-yl)-6,7,8,9-tetrahydro-5-oxa-9-aza-benzocycloheptene-4-carboxamide] | < 100
O=C(Nc1ccc(Cl)cc1)c1cccc2c1OCCN2c1ncccc1Cl [Example 1-006] | < 100
CC(C)Oc1ccc(NC(=O)c2cccc3c2OCCN3c2ncccc2Cl)cc1 [Example 1-007] | < 100
Cc1ccc(NC(=O)c2cccc3c2OCCN3c2ncccc2Cl)cc1 [Example 1-009] | < 100
CC(C)COc1ccc(NC(=O)c2cccc3c2OCCN3c2ncccc2Cl)cc1 [Example 1-011] | < 100
CC(C)(C)c1ccc(NC(=O)c2cccc3c2OCCN3c2ccccn2)cc1 [Example 1-016] | < 100
CC(C)(C)c1ccc(NC(=O)c2cccc3c2OCCN3c2ncccc2C(F)(F)F)cc1 [Example 1-017] | < 100
CC1(C)CN(c2ncccc2Cl)c2cccc(C(=O)Nc3ccc(C(C)(C)C)cc3)c2O1 [Example 1-018] | 100 to 1000
CC1CN(c2ncccc2Cl)c2cccc(C(=O)Nc3ccc(C(C)(C)C)cc3)c2O1 (stereo not shown) [Example 1-019] | 100 to 1000
CC(C)(C)c1ccc(NC(=O)c2cc(Cl)cc3c2OCCN3c2ncccc2Cl)cc1 [Example 1-020] | < 100
O=C(Nc1ccc(OC(F)(F)F)cc1)c1cccc2c1OCCN2c1ncccc1Cl [Example 1-022] | < 100
COc1ccc(NC(=O)c2cccc3c2OCCN3c2ncccc2Cl)cc1 [Example 1-023] | 100 to 1000
O=C(Nc1ccc(Cl)c(C(F)(F)F)c1)c1cccc2c1OCCN2c1ncccc1Cl [Example 1-025] | < 100
O=C(Nc1ccc(F)cc1)c1cccc2c1OCCN2c1ncccc1Cl [Example 1-026] | 100 to 1000
O=C(Nc1cccc(C(F)(F)F)c1)c1cccc2c1OCCN2c1ncccc1Cl [Example 1-027] | < 100

SMILES | IC50 [nM]
O=C(Nc1ccc(C(F)(F)F)cn1)c1cccc2c1OCCN2c1ncccc1Cl [Example 1-029] | < 100
O=C(Nc1ccc(C(F)(F)F)nc1)c1cccc2c1OCCN2c1ncccc1Cl [Example 1-030] | < 100
CC(C)c1ccc(NC(=O)c2cccc3c2OCCN3c2ncccc2Cl)cc1 [Example 1-031] | < 100
O=C(Nc1ccc2cccnc2c1)c1cccc2c1OCCN2c1ncccc1Cl [Example 1-032] | 100 to 1000
CN1CCCc2ccc(NC(=O)c3cccc4c3OCCN4c3ncccc3Cl)cc21 [Example 1-033] | < 100
COC(=O)c1ccc(NC(=O)c2cccc3c2OCCN3c2ncccc2Cl)cc1 [Example 1-034, 4-(3-chloropyridin-2-yl)-N-(methoxycarbonylphenyl)-3,4-dihydro-2H-benzo[1,4]oxazine-8-carboxamide] | < 100
CC(=O)c1ccc(NC(=O)c2cccc3c2OCCN3c2ncccc2Cl)cc1 [Example 1-039, N-(4-acetylphenyl)-4-(3-chloropyridin-2-yl)-3,4-dihydro-2H-benzo[1,4]oxazine-8-carboxamide] | 100 to 1000
CCC(C)(O)c1ccc(NC(=O)c2cccc3c2OCCN3c2ncccc2Cl)cc1 (stereo not shown) [Example 1-041, 4-(3-chloropyridin-2-yl)-N-[4-(1-hydroxy-1-methyl)propyl]phenyl-3,4-dihydro-2H-benzo[1,4]oxazine-8-carboxamide] | 100 to 1000
CC(C)(C)ON1CCC(NC(=O)c2cccc3c2OCCN3c2ncccc2Cl)CC1 [Example 1-043] | 100 to 1000
CC(C)Oc1cccc(NC(=O)c2cccc3c2OCCN3c2ncccc2Cl)c1 [Example 1-044] | < 100
CC(C)COc1cccc(NC(=O)c2cccc3c2OCCN3c2ncccc2Cl)c1 [Example 1-045] | < 100
Cc1cccnc1N1CCOc2c(C(=O)Nc3ccc(C(C)(C)C)cc3)cccc21 [Example 1-047] | < 100
O=C(Nc1ccc(N2CCCCC2)cc1)c1cccc2c1OCCN2c1ncccc1Cl [Example 1-048] | < 100
CN(C)c1ccc(NC(=O)c2cccc3c2OCCN3c2ncccc2Cl)cc1 [Example 1-049] | 100 to 1000
O=C(Nc1ccc(N2CCOCC2)cc1)c1cccc2c1OCCN2c1ncccc1Cl [Example 1-050] | 100 to 1000
CC(C)Oc1ccc(NC(=O)c2cccc3c2OCCN3c2ncccc2Cl)c(F)c1 [Example 1-052] | < 100
O=C(Nc1ccc(F)c(C(F)(F)F)c1)c1cccc2c1OCCN2c1ncccc1Cl [Example 1-053] | < 100
CN(C)c1ccc(NC(=O)c2cccc3c2OCCN3c2ncccc2Cl)cc1C(F)(F)F [Example 1-054] | < 100
CC(C)Oc1ccc(NC(=O)c2cccc3c2OCCN3c2ncccc2Cl)cc1C(F)(F)F [Example 1-055] | < 100
COc1ccc(NC(=O)c2cccc3c2OCCN3c2ncccc2Cl)cc1C(F)(F)F [Example 1-056] | < 100
CC(C)COc1ccc(NC(=O)c2cccc3c2OCCN3c2ncccc2Cl)cc1C(F)(F)F [Example 1-057] | < 100
